# In patent US10828279B2, “Prophylactic and/or therapeutic drug for diabetic nephropathy” (HuBit genomix, Inc., priority 2018, dated 2020):
# What was measured:
# TGF-β1 = experiment: RT-quantitative PCR of TGF-β1 mRNA expression in AGE-stimulated cultured mouse mesangial cells; type: cell-based; conditions: for TGF-β1 (%): relative value, AGE 300 μg/ml+Palovarotene 0.5 μM = 100%
# Protocol: (§1) The glomeruli were isolated from four-week-old wild-type C57BL/6J mice according to the method of Davies M. et al. (Kidney Int. 1994; 45(2):320-7)^36 with necessary modifications and primary culture of the glomeruli was conducted in order to establish mouse mesangial cell strains. AGEs used for cell stimulation were prepared according to the method of Doi T. et al. (Proc, Natl. Acad. Sci. U.S.A. 1992; 89:2873-2877)^37 with necessary modifications. The cultured mouse mesangial cells were grown to confluence, subjected to serum starvation using Opti-MEM (Invitrogen). Then, the cells were treated with (1) no stimulation, (2) AGE 300 μg/ml; (3) AGE 300 μg/ml+palovarotene 0.5 μM; or (4) AGE 300 μg/ml+palovarotene 1 μM. Twenty-four hours after the treatment, RNA extraction was performed by AGPC method. RT-quantitative PCR was performed with the resultant RNA, followed by evaluation of mRNA expression levels by the comparative Ct method (ΔΔ Ct method).
# BMP4 = experiment: RT-quantitative PCR of BMP4 mRNA expression in AGE-stimulated cultured mouse mesangial cells; type: cell-based; conditions: for BMP4 (%): relative value, AGE 300 μg/ml+Palovarotene 0.5 μM = 100%
# Protocol: as §1
# [1] = tested on: Col4α1 (type IV collagen); experiment: RT-quantitative PCR of Col4α1 (type IV collagen) mRNA expression in AGE-stimulated cultured mouse mesangial cells; type: cell-based; conditions: for Col4α1 (%): relative value, AGE 300 μg/ml+Palovarotene 0.5 μM = 100%
# Protocol: as §1
# [2] = tested on: streptozocin-induced diabetic mice; experiment: Histological evaluation of the kidney in STZ-induced diabetic mice on high fat diet; type: in vivo, mouse; conditions: DM+Palo vs DM; palovarotene 60 μg/kg i.p. twice a week, 12 weeks
# Protocol: Streptozocin (Wako) was administered to 12-15 week-old ICR mice (purchased from CLEA Japan) intraperitoneally (I.P.) for five consecutive days at 50 mg/kg per injection to thereby evoke diabetes. Four weeks after the STZ administration, mouse diet was changed to a high fat diet HFD60 (Oriental Yeast) and, at the same time, intraperitoneal administration of palovarotene at 60 μg/kg twice a week was started. Twelve weeks later, the mice were dissected, followed by histological evaluation.
# UUO mice = experiment: Unilateral ureter obstruction (UUO) mouse renal tubulointerstitial fibrosis model, Sirius Red staining; type: in vivo; conditions: UUO+Palo vs UUO; palovarotene 1 mg/kg i.p. for 6 days, day 7 after ureter ligation
# Protocol: Unilateral ureter obstruction (UUO) model is a model in which renal interstitial fibrosis is induced by feeding for seven days under ureter ligation. Briefly, the kidney of a mouse is exposed extraperitoneally by a unilateral dorsal incision. Then, ureter ligation is performed at 2 to 3 spots at intervals of 1 mm with surgical suture, which leads to decreased renal blood flow and glomerular filtration rate. Further, macrophages infiltrate into the tubulointerstitium, apoptosis of tubular epithelial cells occurs, and increase of fibroblasts and extracellular matrix protein progresses in the interstitium, which leads to interstitial fibrosis. In this model, fibrosis is evoked in a short period of time and there is no complication of uremia since no toxic substance is used. Thus, this is an interstitial fibrosis model with high reproducibility. A UUO model was established using 10-12 week-old ICR mice (purchased from CLEA Japan). […] UUO group consists of mice which were kept for 7 days under ureter ligation to thereby induce renal interstitial fibrosis. Palovarotene group consists of mice which received intraperitoneal administration of palovarotene (1 mg/kg) for 6 consecutive days starting from one day after UUO treatment. Mice in each group were dissected 7 days after UUO treatment, followed by histological evaluation of the kidney by Sirius Red staining.
# [3] = AGE 300 μg/ml + compound 0.5 μM, 24 h
# [4] = AGE 300 μg/ml + compound 1.0 μM, 24 h
# [5] = Example 4, 0.5 and 1.0 μM, AGE 300 μg/ml, comparison with palovarotene
structure (smiles),measurement,setting,value
"CC1(C)CCC(C)(C)c2cc(Cn3cccn3)c(/C=C/c3ccc(C(=O)O)cc3)cc21 [Palovarotene, 4-[(E)-2-[5,5,8,8-tetramethyl-3-(pyrazol-1-ylmethyl)-6,7-dihydronaphthalen-2-yl]ethenyl]benzoic acid]",TGF-β1 (%),TGF-β1; [3],100%
same,TGF-β1 (%),TGF-β1; [4],70%
same,TGF-β expression increased by AGE stimulation,"TGF-β1; AGE 300 μg/ml + palovarotene 0.5 or 1 μM, 24 h, FIG. 2A",strongly inhibited
same,inhibitory effect on TGF-01 expression (in words),TGF-β1; [5],dose-dependent inhibitory effect
same,BMP4 (%),BMP4; [3],100%
same,BMP4 (%),BMP4; [4],60%
same,BMP4 expression increased by AGE stimulation,"BMP4; AGE 300 μg/ml + palovarotene 0.5 or 1 μM, 24 h, FIG. 2B",clearly inhibited by palovarotene in a dose dependent manner
same,inhibitory effect on BMP4 expression (in words),BMP4; [5],dose-dependent inhibitory effect
same,inhibition of BMP4 expression increased by AGE stimulation,"BMP4; palovarotene 1 μM, AGE 300 μg/ml, 24 h, FIG. 2B",almost complete
same,Col4α1 (%),[1]; [3],100%
same,Col4α1 (%),[1]; [4],50%
same,inhibitory effect on Col4α1 (type IV collagen) expression (in words),[1]; [5],dose-dependent inhibitory effect
same,production of Col4α1 (type IV collagen) increased by AGE stimulation,"[1]; palovarotene 0.5 μM, AGE 300 μg/ml, 24 h, FIG. 2C",completely inhibited
same,Smad1 activation (pSmad1),[2],inhibition of Smd1 activation
same,WT1 expressed in the podocyte nuclei (WT1),[2],inhibition of reduction of WT1
same,expansion of the glomerular mesangial area (PAS staining),[2],inhibition of expansion of the glomerular mesangial area
same,nephrin-expressing area in glomerular podocytes (Nephrin),[2],inhibition of reduction of nephrin-expressing area
same,phosphorylation of Smad2/3,[2],strongly inhibited
same,type IV collagen expression (Col4),[2],reduction of type IV collagen expression
same,degree of staining of the tubulointerstitium with Sirius Red,UUO mice,clearly lower than that in the kidney tissue of UUO mice
same,tubulointerstitial fibrosis,UUO mice,markedly inhibits
